From patent EP2891491A1, “Use of (r)-phenylpiracetam for the treatment of sleep disorders” (Merz Pharma GmbH & Co. KGaA, priority 2014, dated 2015)

What was measured:
[1] = test system: extracellular dopamine levels in rat striatum; test: brain microdialysis: extracellular dopamine levels in rat striatum; assay type: in vivo, rats; conditions: 100 mg/kg i.p.
Experimental: EXAMPLE 2: Assessment of (R)-phenylpiracetam on extracellular dopamine levels in rat striatum using brain microdialysis - Fig. 1
(R)-Phenylpiracetam was dissolved in saline and injected intraperitoneally (i.p).
Adult male Sprague-Dawley rats (n = 5, ∼300 g; Harlan, The Netherlands) were used for the experiments. After surgery animals were housed individually (cages 30 cm x 30 cm x 40 cm) with food and water was ad libitum available at standard conditions. The post-surgery interval for recovery was minimally 48 h.
Rats were anesthetized using isoflurane (2%, 800 ml/min O2), and placed in a stereotaxic frame (Kopf instruments, USA). […]
Concentrations of DA and DOPAC were determined in the same sample, by HPLC separation and electrochemical detection. DA and DOPAC were detected electrochemically using a potentiostate (Antec Leyden, model Intro, the Netherlands) fitted with a glassy carbon electrode set at +500 mV vs. Ag/AgCl (Antec Leyden, the Netherlands). Data was analyzed by Chromatography Data System (Shimadzu, class-vp, Japan) software. Concentrations were quantified by the external standard method.
After transmitter levels were stabilized, four consecutive pre-treatment microdialysis samples with less than 50% variation were taken as baseline and their mean was set at 100%. […] Transmitter concentration in each fraction was expressed as % ± SEM (standard error mean) of baseline.

[2] = test system: rats; test: motivation tests: progressive ratio task, cost-benefit choice test, consumption test; assay type: in vivo
Experimental: EXAMPLE 6: Effect of (R)-phenylpiracetam in motivation tests - Figs. 5, 6, 7, 8
Methylphenidate purchased from Sigma (Taufkirchen, Germany) was dissolved in distilled water fresh for each test day. D-Amphetamine purchased from Sigma (Taufkirchen, Germany) was dissolved in 0.9% sterile NaCl solution fresh for each test day. (R)-Phenylpiracetam was dissolved in distilled water fresh for each test day.
One hundred and three male Sprague-Dawley rats (Janvier, Le Genest-St-Isle, France) weighing 225-250 g on arrival were used.
The animals were kept under standard laboratory conditions in groups of up to 4 per care with ad libitum access to water. Standard diet for rodents (Altromin) was available to the animals at 15 g per animal/day
For each test described below, two independent experiments were performed using an identical protocol. After continuous reinforcement training (CRF) training (see below) all animals were assigned to treatment groups, such that performance across all the groups was similar. The treatment groups were evenly distributed throughout the caging system.
In experiment 1 and 2 the following protocols were used:
Overview: Three tests were performed in a consecutive manner on subsequent days. On day 1-2, animals were habituated individually to Skinner boxes in two sessions, one per day, for 30 min. Animals received "free" food pellets at a random time (one pellet per minute on average). On days 3-8 animals were trained in Skinner boxes on a continuous reinforcement schedule (one pellet per lever press). On days 9-10 they were tested in the progressive ratio test (Test 1) off-drug, on days 11-12 on-drug. On day 13, a choice test (Test 2) was performed on-drug, on day 14, a consumption test (Test 3) was performed on-drug. Below, tests are described in detail.
Behavioral testing was conducted in 12 operant test chambers (Med Associates, St. Albans, USA). Each chamber was equipped with a retractable lever, a food dispenser with receptacle, an overhead house light and two stimulus lights, one above the lever and the other above the food receptacle. An infrared photocell beam detected nose pokes into the food receptacle. The apparatus was controlled by a computer system (SmartControl®-Interface and MedPC-software, Med Associates, St. Albans, USA). The light above the food receptacle indicated the delivery of a food pellet in the receptacle. Rats were first habituated to the operant boxes for two sessions (30 min each) on two consecutive days. Thereafter, animals were trained for six sessions on the CRF schedule for 30 min. Followed by 4 sessions (two session off-drug followed by two sessions on-drug) of an increasing fixed ratio (FR) schedule in steps of 5, with 3 repetitions of each step (i.e. 1-1-1; 5-5-5; 10-10-10; ...). When the required FR value of each trial was achieved the light above the food receptacle indicated the delivery of a single food pellet (45 mg, Bioserve, USA). The light remained on until the rat poked its nose in the receptacle. Lever presses while the light was on were counted as perseverative lever presses; they were counted but had no programmed consequences. […] For each session, the value of the last completed ratio (breaking point) was recorded as well as the amount of received rewards, the perseverative lever presses, the duration of the session and the latency to respond. Animals of all treatment groups received respective vehicle/drug infusions 30 min pre-test on the final two sessions involving testing under a PR schedule.
In this task the rats had the choice between working for their preferred food (Bioserve pellets) by pressing the lever on a PR schedule as described above or obtaining lab chow being freely available in a dish (about 15 g) within the operant chamber. The food receptacle and the lever were positioned on the same wall of the operant chamber, the dish containing the lab chow was situated in a corner on the opposite side of the operant chamber. […]

What does the source list for `NC(=O)CN1C[C@@H](c2ccccc2)CC1=O` [(R)-phenylpiracetam]?
concentration of dopamine in the striatum [1]: increases extracellular dopamine levels; consumption of freely available normal food ([2]; cost-benefit choice test): does not increase; motivation, i.e. the work load animals are willing to perform to obtain more rewarding food ([2]; drug 30 min pre-test): increases motivation; effect on motivation compared with methylphenidate and amphetamine ([2]; progressive ratio and cost benefit tests): much stronger than that of methylphenidate and amphetamine
